Measurements from US20240174618A1, “SUBSTITUTED (2-HETEROARYLOXYPHENYL)SULFONATES, SALTS THEREOF AND THEIR USE AS HERBICIDAL AGENTS” (Bayer Aktiengesellschaft, priority 2021, published 2024).

Tests used:
Format in all cases: in vivo
[1] = system: Digitaria sanguinalis (DIGSA); experiment: A. Herbicidal pre-emergence efficacy, DIGSA; settings: scored visually after about 3 weeks vs untreated controls
Summary of the method: (§1)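 Pre-emergence soil-surface spray in sandy loam pots, WP/EC in water plus 0.5% additive, 600 L/ha. Visual % damage rating after about 3 weeks in greenhouse vs. untreated; 0% = control-like, 100% = dead plants. Rates up to 1280 g/ha.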

Kochia scoparia (KCHSC) [2] = experiment: A. Herbicidal pre-emergence efficacy, KCHSC
Summary of the method: as §1

Veronica persica (VERPE) = experiment: C. Herbicidal pre-emergence efficacy, VERPE; settings: scored after about 3 weeks
Summary of the method: (§2)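 Pre-emergence test: formulated compounds sprayed as aqueous suspension or emulsion with 0.5% additive at 600 l/ha onto soil covering sown seeds, at rates corresponding to 320 g/ha or less. After about 3 weeks in greenhouse, efficacy scored visually as percent versus untreated controls (100% = plants dead).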

[3] = system: Abutilon theophrasti (ABUTH); experiment: E. Herbicidal post-emergence efficacy, ABUTH
Summary of the method: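 Greenhouse weeds were treated post-emergence at the one-leaf stage, 2-3 weeks after sowing in sandy loam, with WP or EC formulations sprayed as aqueous suspension/emulsion plus 0.5% additive at 600 l/ha, at 320 g/ha or less. Efficacy was rated visually after about 3 weeks versus untreated controls (100% = dead, 0% = like control).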

Lolium rigidum (LOLRI) [4] = experiment: A. Herbicidal pre-emergence efficacy, LOLRI
Summary of the method: as §1

[5] = system: Polygonum convolvulus (POLCO); experiment: C. Herbicidal pre-emergence efficacy, POLCO; settings: scored after about 3 weeks
Summary of the method: as §2

Kochia scoparia (KCHSC) [6] = experiment: C. Herbicidal pre-emergence efficacy, KCHSC
Summary of the method: as §2

[7] = system: Triticum aestivum (TRZAS); experiment: F. Post-emergence effect on useful plants, TRZAS; settings: useful plant
Summary of the method: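 Crop plants grown in sandy loam in the greenhouse were sprayed at the one-leaf stage, 2-3 weeks after sowing, with WP or EC formulations plus 0.5% additive at 600 l/ha water. Damage was scored visually after about 3 weeks against untreated controls (0% = like control, 100% = dead).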

Lolium rigidum (LOLRI) [8] = experiment: C. Herbicidal pre-emergence efficacy, LOLRI; settings: 320 g/ha, scored after about 3 weeks
Summary of the method: as §2

[9] = 80 g/ha, scored visually after about 3 weeks vs untreated controls
[10] = pre-emergence, dosage 1280 g/ha

| Structure (SMILES) | Pre-emergence efficacy against DIGSA ([1]; 80 g/ha) [%] | Pre-emergence efficacy against DIGSA ([1]; 320 g/ha) [%] | Pre-emergence efficacy against DIGSA ([1]; 1280 g/ha) [%] | Pre-emergence efficacy against KCHSC (Kochia scoparia (KCHSC) [2]; [9]) [%] | Pre-emergence efficacy against KCHSC (Kochia scoparia (KCHSC) [2]; pre-emergence, dosage 320 g/ha) [%] | Pre-emergence efficacy against KCHSC (Kochia scoparia (KCHSC) [2]; [10]) [%] | Pre-emergence efficacy against VERPE (Veronica persica (VERPE); 80 g/ha) [%] | Pre-emergence efficacy against VERPE (Veronica persica (VERPE); 320 g/ha) [%] | Post-emergence efficacy against ABUTH in % ([3]; application rate 80 g/ha) [%] | Post-emergence efficacy against ABUTH in % ([3]; application rate 320 g/ha) [%] | Pre-emergence efficacy against LOLRI (Lolium rigidum (LOLRI) [4]; dosage 320 g/ha) [%] | Pre-emergence efficacy against LOLRI (Lolium rigidum (LOLRI) [4]; dosage 1280 g/ha) [%] | Pre-emergence efficacy against POLCO ([5]; 80 g/ha) [%] | Pre-emergence efficacy against POLCO ([5]; 320 g/ha) [%] | Pre-emergence efficacy against KCHSC in % (Kochia scoparia (KCHSC) [6]; application rate 80 g/ha) [%] | Pre-emergence efficacy against KCHSC in % (Kochia scoparia (KCHSC) [6]; application rate 320 g/ha) [%] | Post-emergence efficacy against TRZAS in % ([7]; application rate 80 g/ha) [%] | Pre-emergence efficacy against LOLRI (Lolium rigidum (LOLRI) [8]) [%] | Post-emergence efficacy against TRZAS in % ([7]; application rate 320 g/ha) [%] |
| --- | --- | --- | --- | --- | --- | --- | --- | --- | --- | --- | --- | --- | --- | --- | --- | --- | --- | --- | --- |
| O=S(=O)(CCCC(F)(F)F)Oc1c(F)cccc1Oc1ncc(Br)cn1 [Example I-41] | 100 | 100 | 100 | 100 | 100 | 100 | 100 | 100 | 90 | 100 | 100 | 100 | 100 | 100 | 100 | 100 | 0 | 100 |  |
| O=S(=O)(CCCC(F)(F)F)Oc1c(Cl)cccc1Oc1ncc(Cl)cn1 [Example I-39] | 100 | 100 | 100 | 100 | 100 | 100 | 100 | 100 | 80 | 100 | 100 | 100 | 100 | 100 | 100 | 100 | 0 | 100 | 20 |
| O=S(=O)(CCC(F)=C(F)F)Oc1c(Cl)cccc1Oc1ncc(Cl)cn1 [Example I-73] |  | 90 | 100 |  | 90 | 90 |  | 80 |  | 80 |  | 90 |  | 90 |  | 100 | 0 | 80 | 20 |
| O=S(=O)(CCC1CC1)Oc1c(F)cccc1Oc1ncc(Cl)cn1 [Example I-55] | 100 | 100 | 100 |  | 100 | 100 |  | 100 |  | 100 |  | 100 | 90 | 90 | 80 | 100 | 20 | 90 |  |
| O=S(=O)(CCC(F)(F)F)Oc1c(F)cccc1Oc1ncc(Br)cn1 [Example I-40] | 100 | 100 | 100 | 100 | 100 | 100 | 100 | 100 | 90 | 100 | 100 | 100 | 100 | 100 | 100 | 100 | 10 | 100 | 20 |
| O=S(=O)(CCC(F)(F)F)Oc1c(Cl)cccc1Oc1ncc(Cl)cn1 [Example I-38] |  | 100 | 100 |  | 100 | 100 | 100 | 100 |  | 100 |  | 100 | 100 | 100 | 100 | 100 | 10 | 100 | 20 |
